# In US12419305B2, “Antimicrobial compositions” (Firmenich SA, priority 2018, dated 2025):
# Read-outs that look alike come from different tables or passages of the source.
# Legend:
# S. aureus ATCC 6538 = test: BCT test (bacterial contact time), 60 s, log reduction / effect fraction; CI by Compusyn; type: cell-based, Staphylococcus aureus; details: Staphylococcus aureus, ATCC6538, 1 min, 60 s, in 25% EtOH
# Outline: (§1)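 Perfume ingredients, alone or combined, in ethanol were mixed 1:1 with ~1×10^8 CFU/mL log-phase bacteria in TSB for the stated contact time. Survivors were estimated by serial dilution and OD600 growth at 37 °C; log reduction versus ethanol control. CI from effect fractions via Compusyn (<0.9 synergy, >1.0 antagonism).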
# E. coli ATCC 10536 = test: BCT test (bacterial contact time), 45 s, log reduction / effect fraction; CI by Compusyn; type: cell-based, Escherichia coli
# Outline: as §1
# S. haemolyticus 114126 = test: BCT test (bacterial contact time), 120 s, log reduction / effect fraction; CI by Compusyn; type: cell-based; details: Staphylococcus haemolyticus, 114126, 2 min, contact 120 s, 25% EtOH; for log reduction at 0.1 % strength: dose 0.1% w/v
# Outline: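 S. haemolyticus 114126 (skin isolate), grown to OD600 1-2 in BHI-TW80 and resuspended at 1-5×10^8 CFU/mL, was mixed 1:1 with ethanolic perfume compositions or ethanol alone for 45, 60 or 120 s. Viable counts came from serial-dilution regrowth (37 °C, turbidity OD600), giving log reduction versus ethanol control; CI was computed from concentration–effect fraction pairs.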
# [1] = system: Salmonella enterica ATCC 10708; test: BCT test (bacterial contact time), 60 s, log reduction / effect fraction; CI by Compusyn; type: cell-based; details: Salmonella enterica, ATCC10708, 1 min, BCT 60 s, in 25% EtOH
# Outline: as §1
# [2] = system: Pseudomonas aeruginosa ATCC 15442; test: as above; type: cell-based; details: Pseudomonas aeruginosa, ATCC15442, 1 min, BCT 60 s, in 25% EtOH; for log reduction at 0.125 % strength: Dose 0.125 % w/v
# Outline: as §1
compound,measurement,setting,value
"CC1=CCC(C(C)(C)O)CC1 (centres unmarked) [Terpineol Ord, 2-(4-Methylcyclohex-3-en-1-yl)propan-2-ol]",log reduction at 0.125 % strength,S. aureus ATCC 6538; dose 0.125 % w/v,0.8
same,log reduction at 0.15 % strength,"S. aureus ATCC 6538; dose 0.150 % w/v, read-out: Log reduction",2.8
same,log reduction at 0.175 % strength,"S. aureus ATCC 6538; dose 0.175 % w/v, read-out: Log reduction",4.8
same,log reduction at 0.2 % strength,"S. aureus ATCC 6538; dose 0.200 % w/v, read-out: Log reduction",6.2
same,log reduction at 0.25 % strength,"S. aureus ATCC 6538; dose 0.250 % w/v, read-out: Log reduction",7.3
same,log reduction at 0.1 % strength,"E. coli ATCC 10536; Escherichia coli, ATCC10536, 45 s, dose 0.100 % w/v, 45 s, in 20% EtOH, read-out: Log reduction",0.1
same,log reduction at 0.11 % strength,"E. coli ATCC 10536; Escherichia coli, ATCC10536, 45 s, dose 0.110 % w/v, 45 s, in 20% EtOH",0.3
same,log reduction at 0.125 % strength,"E. coli ATCC 10536; Escherichia coli, ATCC10536, 45 s, dose 0.125 % w/v, 45 s, in 20% EtOH",1.3
same,log reduction at 0.15 % strength,"E. coli ATCC 10536; Escherichia coli, ATCC10536, 45 s, dose 0.150 % w/v, 45 s, in 20% EtOH",3.8
same,log reduction at 0.2 % strength,"E. coli ATCC 10536; Escherichia coli, ATCC10536, 45 s, dose 0.200 % w/v, 45 s, in 20% EtOH",7.4
same,log reduction at 0.1 % strength,S. haemolyticus 114126,-0.1
same,log reduction at 0.2 % strength,S. haemolyticus 114126; dose 0.2% w/v,1.9
same,log reduction at 0.25 % strength,"S. haemolyticus 114126; dose 0.25% w/v, read-out: Log reduction",5.8
same,log reduction at 0.3 % strength,"S. haemolyticus 114126; dose 0.3% w/v, read-out: Log reduction",7.4
same,log reduction at 0.4 % strength,"S. haemolyticus 114126; dose 0.4% w/v, read-out: Log reduction",7.4
same,log reduction at 0.1 % strength,"[1]; Dose 0.1 % w/v, read-out: Log reduction",0.8
same,log reduction at 0.1 % strength,"[1]; Dose 0.10 % w/v, read-out: Log reduction",5.4
same,log reduction at 0.1375 % strength,[1]; Dose 0.1375 % w/v,7.7
same,log reduction at 0.15 % strength,[1]; Dose 0.15 % w/v,7.7
same,log reduction at 0.125 % strength,[2],4.4
same,log reduction at 0.135 % strength,[2]; Dose 0.135 % w/v,4.3
same,log reduction at 0.15 % strength,[2]; Dose 0.15 % w/v,6.6
same,log reduction at 0.2 % strength,"[2]; Dose 0.2 % w/v, read-out: Log reduction",7.6
"CCC(C)(O)CCCC(C)C (centres unmarked) [Tetralinol, 3,7-Dimethyl-3-octanol]",log reduction at 0.0375 % strength,S. aureus ATCC 6538; dose 0.0375 % w/v,1.3
same,log reduction at 0.05 % strength,S. aureus ATCC 6538; dose 0.050 % w/v,5.5
same,log reduction at 0.075 % strength,S. aureus ATCC 6538; dose 0.075 % w/v,7.3
same,log reduction at 0.1 % strength,S. aureus ATCC 6538; dose 0.100 % w/v,7.5
same,log reduction at 0.02 % strength,"E. coli ATCC 10536; Escherichia coli, ATCC10536, 45 s, dose 0.02 % w/v, 45 s, in 20% EtOH",0.1
same,log reduction at 0.025 % strength,"E. coli ATCC 10536; Escherichia coli, ATCC10536, 45 s, dose 0.025 % w/v, 45 s, in 20% EtOH",0.6
same,log reduction at 0.025 % strength,"E. coli ATCC 10536; Escherichia coli, ATCC10536, 45 s, dose 0.025% w/v, contact 45 s, 20% EtOH",0.7
same,log reduction at 0.03 % strength,"E. coli ATCC 10536; Escherichia coli, ATCC10536, 45 s, dose 0.030 % w/v, 45 s, in 20% EtOH",1.4
same,log reduction at 0.03 % strength,"E. coli ATCC 10536; Escherichia coli, ATCC10536, 45 s, dose 0.03% w/v, contact 45 s, 20% EtOH",2
same,log reduction at 0.035 % strength,"E. coli ATCC 10536; Escherichia coli, ATCC10536, 45 s, dose 0.035 % w/v, 45 s, in 20% EtOH",5
same,log reduction at 0.035 % strength,"E. coli ATCC 10536; Escherichia coli, ATCC10536, 45 s, dose 0.035% w/v, contact 45 s, 20% EtOH",5.9
same,log reduction at 0.04 % strength,"E. coli ATCC 10536; Escherichia coli, ATCC10536, 45 s, dose 0.04% w/v, contact 45 s, 20% EtOH",7
same,Log reduction,"E. coli ATCC 10536; dose 0.025 % w/v, 45 s, in 20% EtOH",0.6
same,log reduction at 0.075 % strength,S. haemolyticus 114126; dose 0.075% w/v,1.2
same,log reduction at 0.1 % strength,S. haemolyticus 114126,5
same,log reduction at 0.125 % strength,S. haemolyticus 114126; dose 0.125% w/v,7.3
same,log reduction at 0.15 % strength,S. haemolyticus 114126; dose 0.15% w/v,7.1
same,log reduction at 0.04 % strength,[1]; Dose 0.04 % w/v,5.3
same,log reduction at 0.05 % strength,"[1]; Dose 0.05 % w/v, read-out: Log reduction",6.2
same,log reduction at 0.025 % strength,[2]; Dose 0.025 % w/v,1.2
same,log reduction at 0.05 % strength,[2]; Dose 0.05 % w/v,3.2
same,log reduction at 0.075 % strength,[2]; Dose 0.075 % w/v,3.9
same,log reduction at 0.1 % strength,[2]; Dose 0.1 % w/v,7.1
same,log reduction at 0.125 % strength,[2],7.1
